The target in one assay is T1, Mutant IDH1 R132H (Homo sapiens, UniProt O75874, R132H).
T1 construct: His6 with PreScission site (N, cleaved yes); made in house; host or cells: E. coli Rosetta 2(DE3)
Description: Mutant IDH1 biochemical assay: LC-MS detection of 2-HG. Note: mIDH R132H 0.25 nM, 5 µM NADPH. The following applies: mIDH R132H […], 5 uM NADPH, 100 uM alpha-KG, 45 minutes incubation; range where run multiple times. From the text: Mutant IDH1 biochemical Sssay: LC-MS Detection of 2-HG.

Another assay deals with T2, IDH1 (R132H) mutant (Homo sapiens, UniProt O75874, R132H).
T2 construct: His6 with PreScission site (N, cleaved yes); made in house; host or cells: E. coli Rosetta 2(DE3)
Kind of assay: Fluorescence biochemical assay (NADPH oxidation). The following applies: mIDH R132H 10 nM, 10 μM NADPH, 100 μM α-KG; range where run multiple times. Here is the method:
The IDH1 (R132H) mutant catalyzes the reduced form of NADP+ (NADPH) and α-ketoglutarate (α-KG) to form nicotinamide adenine dinucleotide phosphate (NADP+) and R(−)-2-hydroxyglutarate (2HG). […] Reactions were monitored using the Perkin-Elmer Envision, Model 2101. […] The final reaction mixture contained 2.5% DMSO and test compounds with concentrations ranging 0.0000008-25 μM. The IDH1 (R132H) enzyme was used at a final concentration of 10 nM. Curve fitting for dose response […] determinations was done in the Helios module of the software package DAVID. The 4-parameter logistic model was used: y=min+((max−min)/1+(x/IC50)^shape)

T2 sequence (O75874 whole entry R132H): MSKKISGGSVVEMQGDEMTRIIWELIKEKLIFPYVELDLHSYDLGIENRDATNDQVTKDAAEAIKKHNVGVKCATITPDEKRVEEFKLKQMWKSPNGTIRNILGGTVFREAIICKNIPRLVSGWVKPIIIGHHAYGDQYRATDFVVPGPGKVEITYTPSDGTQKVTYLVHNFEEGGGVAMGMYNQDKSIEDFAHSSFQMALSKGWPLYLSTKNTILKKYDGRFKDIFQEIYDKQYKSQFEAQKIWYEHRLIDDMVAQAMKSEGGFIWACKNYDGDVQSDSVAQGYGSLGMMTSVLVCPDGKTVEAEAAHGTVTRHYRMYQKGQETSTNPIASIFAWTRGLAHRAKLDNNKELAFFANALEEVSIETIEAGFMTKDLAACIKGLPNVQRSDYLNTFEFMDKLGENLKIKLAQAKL
T1 sequence (O75874 whole entry R132H): as above

Regarding `CC(Nc1nccc(N2C(=O)OC[C@@]2(C)C2CC2)n1)c1nc(-c2ccc(Cl)c(OC(F)(F)F)c2)no1` (single isomer, unassigned) [Example 66], the IC50 was 85 nM against Mutant IDH1 R132H and 34.3 to 72.5 nM at IDH1 (R132H) mutant.

In the case of `C[C@H](Nc1ncc(F)c(N2C(=O)OCC2(C)C2CC2)n1)c1ccc(CN2CCC(C)(N)CC2)cc1F` (single isomer, unassigned) [Example 61], the figures for the 50% inhibitory concentration (IC50) against Mutant IDH1 R132H and at IDH1 (R132H) mutant were 696 nM and 236 nM, respectively.

For `C[C@H](Nc1ncc(F)c(N2C(=O)OCC2(C)C2CC2)n1)c1ccc(CN2CCC(N(C)C)CC2)cc1F` (single isomer, unassigned) [Example 58], the 50% inhibitory concentration (IC50) is 2720 nM on Mutant IDH1 R132H and 971 nM at IDH1 (R132H) mutant.

As to `Cc1cc(-c2cnc(C(C)Nc3nccc(N4C(=O)OC[C@]4(C)C4CC4)n3)nc2)ccc1F` (single isomer, unassigned) [Example 53], the IC50 was 22.7 to 35.4 nM on Mutant IDH1 R132H and 36.2 nM against IDH1 (R132H) mutant.

Take `C[C@H](Nc1nccc(N2C(=O)OCC2(C)C2CC2)n1)c1ccc(F)cc1` (single isomer, unassigned) [Example 45]: the IC50 on Mutant IDH1 R132H was 189 nM; at IDH1 (R132H) mutant, 235 to 253 nM.

Regarding `Cc1cc(N2C(=O)OC[C@@H]2C2CC2)nc(N[C@@H](C)c2cnc(-c3ccc(Cl)cc3)s2)n1` [Example 9, (S)-3-(2-(((S)-1-(2-(4-chlorophenyl)thiazol-5-yl)ethyl)amino)-6-methylpyrimidin-4-yl)-4-cyclopropyloxazolidin-2-one], the IC50 on Mutant IDH1 R132H was determined as 43.7 nM; on IDH1 (R132H) mutant it was 105 nM.

Turning to `C[C@H](Nc1ncc(F)c(N2C(=O)OCC2(C)C2CC2)n1)c1ccc(CN2CCC(C)(N)CC2)cc1F` (single isomer, unassigned) [Example 62], the figures for the concentration for half-maximal inhibition (IC50) against Mutant IDH1 R132H and against IDH1 (R132H) mutant were 1620 nM and 748 nM, respectively.

On to `C[C@H](Nc1nccc(N2C(=O)OC[C@]2(C)C2CC2)n1)c1ccc(CN2CCC(N(C)C)CC2)c(F)c1` [Example 30, (S)-4-cyclopropyl-3-(2-(((S)-1-(4-((4-(dimethylamino)piperidin-1-yl)methyl)-3-fluorophenyl)ethyl)amino)pyrimidin-4-yl)-4-methyloxazolidin-2-one], for which the IC50 is 211 to 271 nM on Mutant IDH1 R132H and 122 to 172 nM at IDH1 (R132H) mutant.

Consider `C[C@H](Nc1nc(Cl)cc(N2C(=O)OC[C@@H]2C2CC2)n1)c1ccc(C(C)(C)F)cc1F` [Example 20, (S)-3-(6-chloro-2-(((S)-1-(2-fluoro-4-(2-fluoropropan-2-yl)phenyl)ethyl)amino)pyrimidin-4-yl)-4-cyclopropyloxazolidin-2-one], for which the half-inhibitory concentration (IC50) at Mutant IDH1 R132H turned out to be 83.9 nM; on IDH1 (R132H) mutant it was 218 nM.

In the case of `CC(Nc1nccc(N2C(=O)OC[C@]2(C)C2CC2)n1)c1nc(-c2ccc(Cl)c(OC(F)(F)F)c2)no1` (single isomer, unassigned) [Example 63], the values for the half-maximal inhibitory concentration (IC50) on Mutant IDH1 R132H and against IDH1 (R132H) mutant were 2260 nM and 1890 to 2120 nM, respectively.

Take `Cc1cc(N2C(=O)OC[C@@H]2C2CC2)nc(N[C@@H](C)c2cc(-c3ccc(Cl)cc3)on2)n1` [Example 10, (S)-3-(2-(((S)-1-(5-(4-chlorophenyl)isoxazol-3-yl)ethyl)amino)-6-methylpyrimidin-4-yl)-4-cyclopropyloxazolidin-2-one]: the half-inhibitory concentration (IC50) stood at 22.8 nM against Mutant IDH1 R132H and 71.6 nM at IDH1 (R132H) mutant.

In the case of `CC(Nc1nccc(N2C(=O)OC[C@]2(C)C2CC2)n1)c1nc(-c2ccc(Cl)c(OC(F)(F)F)c2)no1` (single isomer, unassigned) [Example 64], the IC50 is 25.2 nM against Mutant IDH1 R132H and 10.3 to 42.4 nM against IDH1 (R132H) mutant.

In the case of `C[C@H](Nc1nccc(N2C(=O)OC[C@]2(C)C2CC2)n1)c1ccc(CN2CCC(C)(O)CC2)cc1F` [Example 34, (S)-4-cyclopropyl-3-(2-(((S)-1-(2-fluoro-4-((4-hydroxy-4-methylpiperidin-1-yl)methyl)phenyl)ethyl)amino)pyrimidin-4-yl)-4-methyloxazolidin-2-one], the half-inhibitory concentration (IC50) against Mutant IDH1 R132H was 192 nM; against IDH1 (R132H) mutant, 41.8 to 53.1 nM.

As to `C[C@H](Nc1nc(Cl)cc(N2C(=O)OC[C@@H]2C2CC2)n1)c1cc(F)c(-c2cnn(C)c2)cc1F` [Example 18, (S)-3-(6-chloro-2-(((S)-1-(2,5-difluoro-4-(1-methyl-1H-pyrazol-4-yl)phenyl)ethyl)amino)pyrimidin-4-yl)-4-cyclopropyl oxazolidin-2-one], the figures for the concentration for half-maximal inhibition (IC50) at Mutant IDH1 R132H and at IDH1 (R132H) mutant were 15.8 nM and 23.8 nM, respectively.

Turning to `C[C@H](Nc1nccc(N2C(=O)OCC2(C)C2CC2)n1)c1ccc(F)cc1` (single isomer, unassigned) [Example 46], the values for the concentration for half-maximal inhibition (IC50) against Mutant IDH1 R132H and at IDH1 (R132H) mutant were 791 nM and 793 to 1210 nM, respectively.

Turning to `Cc1cc(N2C(=O)OC[C@@H]2C2CC2)nc(N[C@@H](C)c2cn(-c3ccc(Cl)cc3)cn2)n1` [Example 7, (S)-3-(2-(((S)-1-(1-(4-chlorophenyl)-1H-imidazol-4-yl)ethyl)amino)-6-methylpyrimidin-4-yl)-4-cyclopropyloxazolidin-2-one], the IC50 was found to be 8.45 nM on Mutant IDH1 R132H and 17.4 nM against IDH1 (R132H) mutant.

Regarding `C[C@H](Nc1nccc(N2C(=O)OC[C@]2(C)C2CC2)n1)c1ccc(CN2CCC(N)CC2)c(F)c1` [Example 41, (S)-3-(2-(((S)-1-(4-((4-aminopiperidin-1-yl)methyl)-3-fluorophenyl)ethyl)amino)pyrimidin-4-yl)-4-cyclopropyl-4-methyloxazolidin-2-one], the half-maximal inhibitory concentration (IC50) against Mutant IDH1 R132H is 376 nM; on IDH1 (R132H) mutant it was 194 to 473 nM.

Regarding `C[C@H](Nc1ncc(F)c(N2C(=O)OCC2(C)C2CC2)n1)c1ccc(CN2CCC(C)(N)CC2)c(F)c1` (single isomer, unassigned) [Example 60], the IC50 against Mutant IDH1 R132H is 1520 nM; against IDH1 (R132H) mutant it was 584 nM.

As to `Cc1cc(N2C(=O)OC[C@@H]2C2CC2)nc(N[C@@H](C)c2nc(-c3ccc(Cl)cc3)no2)n1` [Example 8, (S)-3-(2-(((S)-1-(3-(4-chlorophenyl)-1,2,4-oxadiazol-5-yl)ethyl)amino)-6-methylpyrimidin-4-yl)-4-cyclopropyloxazolidin-2-one], the IC50 against Mutant IDH1 R132H is 47.1 nM; against IDH1 (R132H) mutant, 71.3 nM.

For the compound `CC(Nc1nccc(N2C(=O)OC[C@]2(C)C2CC2)n1)c1nc(-c2ccc(Cl)cc2)no1` (single isomer, unassigned) [Example 50], the IC50 was 20.2 to 26 nM against Mutant IDH1 R132H and 62.9 nM against IDH1 (R132H) mutant.

With `C[C@H](Nc1nccc(N2C(=O)OC[C@]2(C)C2CC2)n1)c1ccc(CN2CCC(C)(N(C)C)CC2)c(F)c1` [Example 37, (S)-4-cyclopropyl-3-(2-(((S)-1-(4-((4-(dimethylamino)-4-methylpiperidin-1-yl)methyl)-3-fluorophenyl)ethyl)amino)pyrimidin-4-yl)-4-methyloxazolidin-2-one], half-maximal inhibition against Mutant IDH1 R132H (IC50) was put at 28.6 nM.

As for `C[C@H](Nc1nc(Cl)cc(N2C(=O)OC[C@@H]2C2CC2)n1)c1cn(-c2ccc(F)cc2)cn1` [Example 27, (S)-3-(6-chloro-2-(((S)-1-(1-(4-fluorophenyl)-1H-imidazol-4-yl)ethyl)amino)pyrimidin-4-yl)-4-cyclopropyloxazolidin-2-one], the values for the IC50 against Mutant IDH1 R132H and at IDH1 (R132H) mutant were 20 nM and 7.27 nM, respectively.

With `C[C@H](Nc1nccc(N2C(=O)OC[C@]2(C)C2CC2)n1)c1ccc(CN2CCC(N(C)C)CC2)cc1F` [Example 33, (S)-4-cyclopropyl-3-(2-(((S)-1-(4-((4-(dimethylamino)piperidin-1-yl)methyl)-2-fluorophenyl)ethyl)amino)pyrimidin-4-yl)-4-methyloxazolidin-2-one], the results for the IC50 against Mutant IDH1 R132H and against IDH1 (R132H) mutant were 175 nM and 109 to 115 nM, respectively.

As for `C[C@H](Nc1nccc(N2C(=O)OCC2(C)C2CC2)n1)c1ccc(CN2CCN(C)CC2)cc1` (single isomer, unassigned) [Example 48], the half-maximal inhibitory concentration (IC50) against Mutant IDH1 R132H worked out at 2660 nM.

On to `C[C@H](Nc1ncc(F)c(N2C(=O)OCC2(C)C2CC2)n1)c1ccc(CN2CCC(C)(N)CC2)c(F)c1` (single isomer, unassigned) [Example 59], for which the IC50 came to 922 nM against Mutant IDH1 R132H and 183 nM at IDH1 (R132H) mutant.

Regarding `C[C@H](Nc1ncc(F)c(N2C(=O)OCC2(C)C2CC2)n1)c1ccc(CN2CCC(N(C)C)CC2)cc1F` (single isomer, unassigned) [Example 57], the IC50 was determined as 868 nM at Mutant IDH1 R132H and 290 nM on IDH1 (R132H) mutant.

`C[C@H](Nc1nccc(N2C(=O)OC[C@]2(C)C2CC2)n1)c1ccc(CN2CCC(O)(C(F)(F)F)CC2)c(F)c1` [Example 32, (S)-4-cyclopropyl-3-(2-(((S)-1-(3-fluoro-4-((4-hydroxy-4-(trifluoromethyl)piperidin-1-yl)methyl)phenyl)ethyl)amino)pyrimidin-4-yl)-4-methyloxazolidin-2-one] came in with an IC50 against Mutant IDH1 R132H of 13.3 nM.

Consider `C[C@H](Nc1ncc(F)c(N2C(=O)OCC2(C)C2CC2)n1)c1ccc(CN2CCC(N(C)C)CC2)c(F)c1` (stereo partly drawn) [Example 36, 4-cyclopropyl-3-(2-(((S)-1-(4-((4-(dimethylamino)piperidin-1-yl)methyl)-3-fluorophenyl)ethyl)amino)-5-fluoropyrimidin-4-yl)-4-methyloxazolidin-2-one], for which the concentration for half-maximal inhibition (IC50) against Mutant IDH1 R132H stood at 963 nM.

`CC(Nc1nccc(N2C(=O)OC[C@@]2(C)C2CC2)n1)c1nc(-c2ccc(Cl)cc2)no1` (single isomer, unassigned) [Example 51]: the IC50 on Mutant IDH1 R132H lay within 3160 to 3260 nM.

Compound `CC(Nc1nccc(N2C(=O)OC[C@@]2(C)C2CC2)n1)c1nc(-c2ccc(Cl)cc2)no1` (single isomer, unassigned) [Example 52] displayed a half-maximal inhibitory concentration (IC50) at Mutant IDH1 R132H of 32.6 to 54 nM.

(Values after patent publication US20160039802A1, “3-PYRIMIDIN-4-YL-OXAZOLIDIN-2-ONES AS INHIBITORS OF MUTANT IDH” (NOVARTIS AG, priority 2013, published 2016).)
